Data from ChEMBL document CHEMBL1201862, “PubChem BioAssay data set” (2004).
The source made the active and inactive calls.

Assays:
[1] = biological target: Phospholipase D2 (Homo sapiens, UniProt O14939); test: PLD2 inhibitor potency in cells, dose response (AID 602147); format: functional;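 further: cellular assay in HEK293 cells overexpressing GFP-tagged PLD2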
[2] = biological target: Phospholipase D1 (Homo sapiens, UniProt Q13393); test: PLD1 inhibitor potency in cells, dose response (AID 602151); format: functional;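 further: cellular PLD1 assay in Calu-1 cells stimulated with PMA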
Chain of Phospholipase D1 (Q13393 whole entry): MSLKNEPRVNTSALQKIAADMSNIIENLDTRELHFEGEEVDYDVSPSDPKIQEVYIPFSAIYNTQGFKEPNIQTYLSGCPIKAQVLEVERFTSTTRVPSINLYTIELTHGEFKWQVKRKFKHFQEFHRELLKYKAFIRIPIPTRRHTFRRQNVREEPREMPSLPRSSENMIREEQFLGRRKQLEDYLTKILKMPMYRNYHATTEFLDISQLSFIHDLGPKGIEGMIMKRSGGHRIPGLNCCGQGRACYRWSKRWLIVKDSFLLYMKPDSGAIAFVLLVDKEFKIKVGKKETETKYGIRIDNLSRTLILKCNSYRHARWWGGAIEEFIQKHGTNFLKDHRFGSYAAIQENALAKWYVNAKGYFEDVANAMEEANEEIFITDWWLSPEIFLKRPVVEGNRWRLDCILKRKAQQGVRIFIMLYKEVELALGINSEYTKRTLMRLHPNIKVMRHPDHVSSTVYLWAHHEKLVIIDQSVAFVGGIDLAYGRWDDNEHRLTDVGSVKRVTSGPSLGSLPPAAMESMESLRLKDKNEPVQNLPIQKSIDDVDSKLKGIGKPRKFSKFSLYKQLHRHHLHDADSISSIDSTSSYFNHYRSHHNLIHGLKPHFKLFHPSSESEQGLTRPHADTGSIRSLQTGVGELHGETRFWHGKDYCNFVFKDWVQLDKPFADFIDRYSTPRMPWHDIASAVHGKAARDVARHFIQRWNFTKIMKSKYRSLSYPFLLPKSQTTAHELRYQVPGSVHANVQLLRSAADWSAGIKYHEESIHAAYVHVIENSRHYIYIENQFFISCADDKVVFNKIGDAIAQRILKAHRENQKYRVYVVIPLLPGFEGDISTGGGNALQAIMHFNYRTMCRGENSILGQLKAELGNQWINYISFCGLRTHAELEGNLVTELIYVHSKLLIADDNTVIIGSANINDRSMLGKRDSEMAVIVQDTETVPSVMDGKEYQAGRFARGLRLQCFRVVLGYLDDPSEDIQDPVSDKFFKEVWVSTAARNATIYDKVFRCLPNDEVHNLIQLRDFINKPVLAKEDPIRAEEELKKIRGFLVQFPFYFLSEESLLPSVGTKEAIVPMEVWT

[3] = tested on: Jurkat; test: SAR Analysis of small molecule inhibitors of both B-cell and T-cell specific antigen receptor-induced NF-kB activation in a Jurkat cell line using a luminescence assay. [Related pubchem assays (depositor defined):AID435003, AID435022, AID465, AID489029]; format: functional, cell-based; conditions: Homo sapiens
[4] = tested on: HEK293; test: cytotoxicity in HEK293T NF-kB-Luc cells, SAR follow-up, cytotoxicity control for NF-kB activator project, cell-based, resazurin fluorescence (AID 493251); format: functional; conditions: Homo sapiens
[5] = tested on: HEK293; test: SAR Analysis of small molecule inhibitors of both B-cell and T-cell specific antigen receptor-induced NF-kB activation in a HEK-293T cell line using a luminescence assay. [Related pubchem assays (depositor defined):AID435003, AID435022, AID465, AID489019, AID489029]; format: functional, cell-based; conditions: Homo sapiens
[6] = biological target: DNA topoisomerase (Yersinia pestis, UniProt A0A2S9PM60); test: Y. pestis Topo-I inhibitors, cleavage product readout, dose response, biochemical, cherry-pick (AID 588525)
Chain of DNA topoisomerase (A0A2S9PM60 whole entry, the tested form may be a part): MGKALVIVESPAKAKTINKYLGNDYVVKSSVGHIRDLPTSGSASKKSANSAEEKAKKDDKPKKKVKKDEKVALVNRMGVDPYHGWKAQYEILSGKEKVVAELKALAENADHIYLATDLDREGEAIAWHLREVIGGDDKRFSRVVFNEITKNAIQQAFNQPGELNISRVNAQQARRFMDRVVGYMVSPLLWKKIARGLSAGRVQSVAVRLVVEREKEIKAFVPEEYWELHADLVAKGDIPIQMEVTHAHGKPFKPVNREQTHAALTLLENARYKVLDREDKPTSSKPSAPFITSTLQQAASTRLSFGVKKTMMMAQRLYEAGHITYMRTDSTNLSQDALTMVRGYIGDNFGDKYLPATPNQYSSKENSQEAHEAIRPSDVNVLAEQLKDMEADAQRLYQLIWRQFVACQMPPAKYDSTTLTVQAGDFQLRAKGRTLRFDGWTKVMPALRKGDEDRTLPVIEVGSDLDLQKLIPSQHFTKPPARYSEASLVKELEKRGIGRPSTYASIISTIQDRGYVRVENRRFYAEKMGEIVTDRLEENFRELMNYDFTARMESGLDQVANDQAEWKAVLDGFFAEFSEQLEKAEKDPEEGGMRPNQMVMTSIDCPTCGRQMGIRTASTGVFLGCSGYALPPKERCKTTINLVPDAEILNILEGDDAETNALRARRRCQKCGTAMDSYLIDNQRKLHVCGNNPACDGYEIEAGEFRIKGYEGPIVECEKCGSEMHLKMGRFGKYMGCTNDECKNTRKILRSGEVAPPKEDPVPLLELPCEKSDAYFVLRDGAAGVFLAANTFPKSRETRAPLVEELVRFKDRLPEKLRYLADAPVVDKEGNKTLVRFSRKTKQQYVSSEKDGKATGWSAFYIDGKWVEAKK

[7] = biological target: Hexokinase-1 (Homo sapiens, UniProt P19367); test: SAR analysis of small molecule inhibitors of hexokinase domain containing I (HKDC1) in the hexokinase 1 selectivity assay. [Related pubchem assays (depositor defined):AID493160, AID493190]; format: functional
Chain of Hexokinase-1 (P19367 whole entry, the tested form may be a part): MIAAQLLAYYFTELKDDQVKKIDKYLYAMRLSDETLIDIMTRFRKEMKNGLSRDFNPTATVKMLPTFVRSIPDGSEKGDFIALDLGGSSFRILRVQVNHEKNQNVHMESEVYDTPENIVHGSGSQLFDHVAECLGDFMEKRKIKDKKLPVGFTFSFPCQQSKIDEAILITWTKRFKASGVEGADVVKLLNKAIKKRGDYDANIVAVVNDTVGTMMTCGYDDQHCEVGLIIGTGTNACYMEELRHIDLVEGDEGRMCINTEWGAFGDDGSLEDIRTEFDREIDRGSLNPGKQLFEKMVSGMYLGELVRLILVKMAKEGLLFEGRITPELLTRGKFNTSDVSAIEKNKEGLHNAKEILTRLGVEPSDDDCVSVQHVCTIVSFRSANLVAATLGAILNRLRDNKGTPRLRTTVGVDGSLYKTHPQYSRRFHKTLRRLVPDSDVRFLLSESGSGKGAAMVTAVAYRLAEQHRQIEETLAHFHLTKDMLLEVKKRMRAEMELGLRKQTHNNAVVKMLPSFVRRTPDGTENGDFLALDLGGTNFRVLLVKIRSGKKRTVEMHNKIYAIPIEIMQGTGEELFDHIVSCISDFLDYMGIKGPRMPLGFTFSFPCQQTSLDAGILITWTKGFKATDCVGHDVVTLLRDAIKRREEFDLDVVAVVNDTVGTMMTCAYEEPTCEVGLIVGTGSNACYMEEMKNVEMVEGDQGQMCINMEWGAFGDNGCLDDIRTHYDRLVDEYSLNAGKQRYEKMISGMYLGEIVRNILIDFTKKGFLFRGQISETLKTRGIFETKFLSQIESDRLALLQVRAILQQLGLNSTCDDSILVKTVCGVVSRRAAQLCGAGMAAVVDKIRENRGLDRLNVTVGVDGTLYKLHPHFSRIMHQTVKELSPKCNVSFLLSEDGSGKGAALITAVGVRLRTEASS

[8] = biological target: T1, Hexokinase HKDC1 (Homo sapiens, UniProt Q2TB90); test: SAR analysis of small molecule inhibitors of hexokinase domain containing I (HKDC1). [Related pubchem assays (depositor defined):AID493160, AID493190]; format: functional
T1 sequence (Q2TB90 whole entry): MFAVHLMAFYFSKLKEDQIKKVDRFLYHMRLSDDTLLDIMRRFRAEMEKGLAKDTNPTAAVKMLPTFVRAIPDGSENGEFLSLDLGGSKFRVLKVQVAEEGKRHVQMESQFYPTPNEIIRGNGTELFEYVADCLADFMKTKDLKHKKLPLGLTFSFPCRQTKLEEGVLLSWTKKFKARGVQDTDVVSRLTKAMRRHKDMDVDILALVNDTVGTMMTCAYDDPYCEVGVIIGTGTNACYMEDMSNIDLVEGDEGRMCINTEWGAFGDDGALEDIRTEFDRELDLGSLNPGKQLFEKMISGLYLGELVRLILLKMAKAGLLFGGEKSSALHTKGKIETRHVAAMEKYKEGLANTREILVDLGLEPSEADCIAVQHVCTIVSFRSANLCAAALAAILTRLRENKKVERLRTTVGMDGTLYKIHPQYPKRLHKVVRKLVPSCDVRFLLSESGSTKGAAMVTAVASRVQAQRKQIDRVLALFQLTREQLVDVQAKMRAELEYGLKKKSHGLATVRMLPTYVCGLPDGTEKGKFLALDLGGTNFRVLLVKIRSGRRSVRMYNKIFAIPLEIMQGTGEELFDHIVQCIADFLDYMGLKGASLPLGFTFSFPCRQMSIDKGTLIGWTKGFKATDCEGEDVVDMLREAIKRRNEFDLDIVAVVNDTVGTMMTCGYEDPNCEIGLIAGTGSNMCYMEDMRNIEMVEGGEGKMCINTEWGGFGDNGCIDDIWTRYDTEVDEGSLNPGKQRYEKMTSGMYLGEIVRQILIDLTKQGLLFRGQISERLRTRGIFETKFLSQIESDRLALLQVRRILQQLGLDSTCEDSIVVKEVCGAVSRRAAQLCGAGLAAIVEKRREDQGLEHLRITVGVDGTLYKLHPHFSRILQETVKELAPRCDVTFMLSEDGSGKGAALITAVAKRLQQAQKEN

Chain of Phospholipase D2 (O14939 whole entry): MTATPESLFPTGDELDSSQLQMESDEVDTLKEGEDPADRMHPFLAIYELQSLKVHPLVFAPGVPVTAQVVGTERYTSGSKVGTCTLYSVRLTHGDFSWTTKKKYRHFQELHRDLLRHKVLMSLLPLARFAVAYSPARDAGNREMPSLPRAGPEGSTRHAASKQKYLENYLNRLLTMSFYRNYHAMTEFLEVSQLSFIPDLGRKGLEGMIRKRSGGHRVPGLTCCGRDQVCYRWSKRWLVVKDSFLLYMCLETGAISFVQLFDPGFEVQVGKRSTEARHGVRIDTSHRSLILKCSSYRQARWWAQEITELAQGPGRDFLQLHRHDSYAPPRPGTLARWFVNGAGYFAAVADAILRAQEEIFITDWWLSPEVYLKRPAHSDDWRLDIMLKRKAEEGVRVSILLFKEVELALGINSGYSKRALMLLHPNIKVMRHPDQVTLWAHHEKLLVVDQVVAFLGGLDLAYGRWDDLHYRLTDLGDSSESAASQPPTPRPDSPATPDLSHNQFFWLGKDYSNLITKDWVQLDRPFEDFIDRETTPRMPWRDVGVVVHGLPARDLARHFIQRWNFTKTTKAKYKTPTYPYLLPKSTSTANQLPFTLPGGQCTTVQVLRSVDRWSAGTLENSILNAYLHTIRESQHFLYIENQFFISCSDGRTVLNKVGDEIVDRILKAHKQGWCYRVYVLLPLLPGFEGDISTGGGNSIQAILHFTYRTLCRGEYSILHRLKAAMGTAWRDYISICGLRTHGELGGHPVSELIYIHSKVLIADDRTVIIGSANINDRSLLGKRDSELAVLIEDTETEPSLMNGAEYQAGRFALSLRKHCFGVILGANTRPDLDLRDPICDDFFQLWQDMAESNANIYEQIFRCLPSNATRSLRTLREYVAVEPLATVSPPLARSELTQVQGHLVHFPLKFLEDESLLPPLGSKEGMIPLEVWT

## O=C(NCCN1CCC(n2c(=O)[nH]c3ccccc32)CC1)c1cccc(F)n1
[1]
  IC50: 1.3 µM (active)
[2]
  IC50: 0.19 µM (active)

## Nc1cccc2cccnc12 [8-AMINOQUINOLINE]
[3]
  IC50: > 79 µM (inactive)
[4]
  IC50: > 80 µM (inactive)
[5]
  IC50: > 79 µM (inactive)

## COc1cc2ccccc2cc1C(=O)OCC(=O)N(CC(C)C)c1c(N)n(Cc2ccccc2)c(=O)[nH]c1=O
[6]
  AC50: 20.8 µM (active)

## Cc1ccc(CSc2nnc(NC(=O)c3ccc4ncsc4c3)s2)cc1
[7]
  IC50: > 80 µM (inactive)
[8]
  IC50: > 80 µM (inactive)
